{"source": "patent US12398097B2", "about": "“WDR5-MYC inhibitors” (Vanderbilt University, priority 2019, dated 2025)", "target": "WDR5 (Homo sapiens, UniProt P61964)", "assay": "Competition-based fluorescence polarization anisotropy assay", "conditions": "binding to WDR5; displacement of FITC-labeled small molecule probe (analogous to Example J2 or HCH-25) or peptide probe FITC-AHx-SEEEIDVVSV; pH 6.0; Ki converted from IC50", "how_it_was_run": "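Ki values derive from displacement of either a fluorescent small-molecule probe or a FITC-peptide probe from WDR5, monitored by fluorescence polarization. Assay run at pH 6.0 in 200 mM phosphate with 300 mM NaCl, 0.5 mM TCEP and 0.1% Chaps.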", "data": [{"molecule": "CCCc1cc(Br)cc(S(=O)(=O)Nc2cc(OC(F)(F)F)cc(C(=O)O)c2O)c1O", "note": "[HCH-16, 3-((5-Bromo-2-hydroxy-3-propylphenyl)sulfonamido)-2-hydroxy-5-(trifluoromethoxy)benzoic acid]", "values": [{"measurement": "Ki", "result": 110, "unit": "nM"}]}, {"molecule": "CCCc1cc(Br)cc(S(=O)(=O)Nc2cc(Cl)cc(C(=O)O)c2O)c1O", "note": "[HCH-17, 3-((5-Bromo-2-hydroxy-3-propylphenyl)sulfonamido)-5-chloro-2-hydroxybenzoic acid]", "values": [{"measurement": "Ki", "result": 320, "unit": "nM"}]}, {"molecule": "CCc1cc(NS(=O)(=O)c2cc(Br)ccc2O)c(O)c(C(=O)O)c1", "note": "[HCH-18, 3-((5-Bromo-2-hydroxyphenyl)sulfonamido)-5-ethyl-2-hydroxybenzoic acid]", "values": [{"measurement": "Ki", "result": 60, "unit": "nM"}]}, {"molecule": "CCc1cc(NS(=O)(=O)c2cc(Br)cc(F)c2O)c(O)c(C(=O)O)c1", "note": "[HCH-21, 3-((5-Bromo-3-fluoro-2-hydroxyphenyl)sulfonamido)-5-ethyl-2-hydroxybenzoic acid]", "values": [{"measurement": "Ki", "result": 460, "unit": "nM"}]}, {"molecule": "CCc1cc(NS(=O)(=O)c2cc(Br)cc(Cl)c2O)c(O)c(C(=O)O)c1", "note": "[HCH-22, 3-((5-Bromo-3-chloro-2-hydroxyphenyl)sulfonamido)-5-ethyl-2-hydroxybenzoic acid]", "values": [{"measurement": "Ki", "result": 90, "unit": "nM"}]}, {"molecule": "O=C(O)c1cc(OC(F)(F)F)cc(NS(=O)(=O)c2cc(Br)cc(Cl)c2O)c1O", "note": "[HCH-24, 3-((5-Bromo-3-chloro-2-hydroxyphenyl)sulfonamido)-2-hydroxy-5-(trifluoromethoxy)benzoic acid]", "values": [{"measurement": "Ki", "result": 40, "unit": "nM"}]}, {"molecule": "NC(=O)c1cc(Cl)cc(NS(=O)(=O)c2cc(Br)cc(Cl)c2O)c1O", "note": "[HCH-25, 3-((5-Bromo-3-chloro-2-hydroxyphenyl)sulfonamido)-5-chloro-2-hydroxybenzamide]", "values": [{"measurement": "Ki", "result": 270, "unit": "nM"}]}, {"molecule": "O=C(NCCO)c1cc(OC(F)(F)F)cc(NS(=O)(=O)c2cc(Br)ccc2O)c1O", "note": "[HCH-26, 3-((5-Bromo-2-hydroxyphenyl)sulfonamido)-2-hydroxy-N-(2-hydroxyethyl)-5-(trifluoromethoxy)benzamide]", "values": [{"measurement": "Ki", "result": 250, "unit": "nM"}]}, {"molecule": "O=C(O)c1cc(OC(F)(F)F)cc(NS(=O)(=O)c2cc(Br)cc(CCCO)c2O)c1O", "note": "[HCH-27, 3-((5-Bromo-2-hydroxy-3-(3-hydroxypropyl)phenyl)sulfonamido)-2-hydroxy-5-(trifluoromethoxy)benzoic acid]", "values": [{"measurement": "Ki", "result": 400, "unit": "nM"}]}, {"molecule": "CCC(O)CNC(=O)c1cc(OC(F)(F)F)cc(NS(=O)(=O)c2cc(Br)cc(F)c2O)c1O", "note": "(stereo not drawn) [HCH-39, 3-((5-Bromo-3-fluoro-2-hydroxyphenyl)sulfonamido)-2-hydroxy-N-(2-hydroxybutyl)-5-(trifluoromethoxy)benzamide]", "values": [{"measurement": "Ki", "result": 320, "unit": "nM"}]}, {"molecule": "CCc1cc(Br)cc(S(=O)(=O)Nc2cc(OC(F)(F)F)cc(C(=O)NCC(O)CC)c2O)c1O", "note": "(stereo not drawn) [HCH-40, 3-((5-Bromo-3-ethyl-2-hydroxyphenyl)sulfonamido)-2-hydroxy-N-(2-hydroxybutyl)-5-(trifluoromethoxy)benzamide]", "values": [{"measurement": "Ki", "result": 350, "unit": "nM"}]}, {"molecule": "CCC(O)CNC(=O)c1cc(OC(F)(F)F)cc(NS(=O)(=O)c2cc(Br)cc(Cl)c2O)c1O", "note": "(stereo not drawn) [HCH-41, 3-((5-Bromo-3-chloro-2-hydroxyphenyl)sulfonamido)-2-hydroxy-N-(2-hydroxybutyl)-5-(trifluoromethoxy)benzamide]", "values": [{"measurement": "Ki", "result": 230, "unit": "nM"}]}, {"molecule": "O=C(NCC(O)c1ccsc1)c1cc(OC(F)(F)F)cc(NS(=O)(=O)c2cc(Br)ccc2O)c1O", "note": "(stereo not drawn) [HCH-43, 3-((5-Bromo-2-hydroxyphenyl)sulfonamido)-2-hydroxy-N-(2-hydroxy-2-(thiophen-3-yl)ethyl)-5-(trifluoromethoxy)benzamide]", "values": [{"measurement": "Ki", "result": 430, "unit": "nM"}]}, {"molecule": "CC(O)(CNC(=O)c1cc(OC(F)(F)F)cc(NS(=O)(=O)c2cc(Br)ccc2O)c1O)C1CC1", "note": "(stereo not drawn) [HCH-44, 3-((5-Bromo-2-hydroxyphenyl)sulfonamido)-N-(2-cyclopropyl-2-hydroxypropyl)-2-hydroxy-5-(trifluoromethoxy)benzamide]", "values": [{"measurement": "Ki", "result": 430, "unit": "nM"}]}, {"molecule": "CCC(C)(O)CNC(=O)c1cc(OC(F)(F)F)cc(NS(=O)(=O)c2cc(Br)ccc2O)c1O", "note": "(stereo not drawn) [HCH-45, 3-((5-Bromo-2-hydroxyphenyl)sulfonamido)-2-hydroxy-N-(2-hydroxy-2-methylbutyl)-5-(trifluoromethoxy)benzamide]", "values": [{"measurement": "Ki", "result": 440, "unit": "nM"}]}]}
